Experimental findings from patent US20210317113A1, “1,2,3-TRIAZOLE DERIVATIVES AND USES THEREOF” (Alxerion Biotech LLC, priority 2020, published 2021) are described below.

Assay [1] relates to fibrinolysis mediated by tPA (plasminogen activation by tPA). Kind of assay: Fibrinolytic assay: one-step spectrophotometric clot lysis in human plasma. The assay is classed as biochemical. The note with it: for pIC50: concentration at which 50% of total fibrinolysis mediated by tPA is inhibited, human ACD plasma, clot triggered by TF, absorbance 340 nm, read-out: Anti-fibrinolytic (SERPIN) Activity IC50. Here is the method:
Fibrinolytic activity in human plasma was determined by a one-step spectrophotometric method (Gidron et al. (1978) J. Clin. Pathol. 31(1):54-57) with minor modifications (see EXAMPLE 2). In this method, fibrin clot formation in anticoagulant citrate dextrose (ACD) plasma samples obtained from healthy volunteers is triggered by tissue factor (TF) and can be quantified by spectrometry as a significant increase in basal plasma absorbance at 340 nm.
As shown in FIGS. 2A-2D, in the absence of tPA, plasma absorbance remains permanently elevated.
Fibrinolytic activity in human plasmas in the presence of derivatives according to the disclosure was determined by a one-step spectrophotometric method.
Fibrin clot formation in the anticoagulant acid citrate dextrose (ACD)-treated plasma obtained from healthy volunteers is triggered by tissue factor (TF) (Thromborel S, Siemens Healthineers) and quantifies by spectrophotometry at 340 nm (using a Molecular Devices SpectraMax® M2e Multimode Microplate Reader). When recombinant human Tissue Plasminogen Activator (tPA, final concentration of 5.2 μg/ml) is simultaneously added, fibrinolysis of the clot can be determined.
Fresh blood was extracted from healthy volunteers. ACD, to reach a 10% concentration, was instantly added to the extracted blood, to prevent any unwanted coagulation. After that, blood was centrifuged for 15 min at 1,000 g. Plasma was clearly separated from red blood cells. 3 mL aliquots of aspirated plasma were immediately frozen at −20° C.
4 mL of ddH2O was added to a vial of Thromborel S and mixed thoroughly for 2 min. and left at 4° C. 500 μL TF aliquots were used for each experiment.
Representative derivatives of the present disclosure (Nos. 1, 5, and 7) were diluted in DMSO (those with Boc) or ddH2O (those with HCl) to a final concentration of 10 mM. A solution containing 1 M Tris HCl, pH 7.5 (Fisher BioReagent) (Buffer A), 0.110 g of CaCl2) in 10 mL of ddH2O (Buffer B), and tPA (Abcam, 1.3 mg/mL added into the diluted derivative solution, final concentration in serum was 5.2 μg/mL), and the derivative was prepared in a total volume of 75 μL and added to untreated, flat, clear Costar® 96-well plates in triplicate. Absorbance at 340 nm at 37° C. for 30 min was recorded every 15 sec. The plates were shaken every 3 sec in between readings. Controls for basal plasma absorbance, basal coagulation absorbance and basal fibrinolytic activity absorbance were performed in every assay.
FIG. 2A show the results a control experiment displaying the ability of TF to cause fibrin clot formation in the absence and presence of t-PA. TF was able to cause fibrin clot formation evaluated as a significant increase of the basal plasma absorbance at 340 nm.

Assay [2] has as its system Non-Small Lung Cancer Cells (NSLCs). Kind of assay: Cancer migration (wound healing) assay. The assay is classed as cell-based. An excerpt:
The ability of 1,2,3-triazole derivatives according to the disclosure to inhibit cancer cell migration and proliferation in vitro can be measured, e.g., by a wound healing assay (Rodriguez et al., in Cell Migration: Developmental Methods and Protocols, Web et al., Guan ed. Humana Press 294, 23-29). This assay is based on the observation that, upon the creation of an artificial gap on a confluent cancer cell monolayer, the cells on the edge of the created gap will start migrating and proliferating until new cell-cell contacts are established (EXAMPLE 3).
Non-Small Lung Cancer Cells (NSLCs) migration rate was assessed in an in vitro wound healing assay. This assay is based on the observation that, upon the creation of an artificial gap on a confluent cell monolayer, the cells on the edge of the created gap will start migrating and proliferating until new cell-cell contacts are established.
A confluent cell layer is a prerequisite for starting this assay. Gap formation is done manually with a scrapper and cell proliferation and migration is determined recording a time-lapse video for 20 hr. with a time interval of 30 min. The microscopic pictures are manually analyzed for obtaining information about the proliferation and migration characteristics of the cultured cells and the image analysis detects the cell covered area.
NSLCs were cultured in Eagle's Minimum Essential Medium (ATCC-formulated medium, Catalog No. 30-2003) containing fetal bovine serum at 10% during several periods. Wound healing assays with supplemented medium containing 1,2,3-triazole derivatives were performed to evaluate the inhibitory effect on proliferation and migration of cancer cells.
In order to simulate as close as possible the in vivo cancer microenvironment, human plasma and calcium were added to the cell culture system to provide the hemostatic factors normally present in the cancer stroma. The previous day, cells were seeded with 10% FBS at a number that would provide 90% confluence the next day. On Day 0, a scratch (“a wound”) was performed in the middle of the well and the 10% FBS medium was replaced with 20% plasma, 20 mM calcium medium, with or without Derivative 1. 10% FBS medium was used as control in these experiments. “Wound healing” or closure of the scratch was assessed over a period of 4 days, and cell number in the wound area was quantified for each condition. Increasing amount of Derivative 1 (LTI6) was used to attain a dose-response curve.
The cell function effect of Derivative 1 was compared with Tranexamic Acid (TNA) and Caproic Acid (CA), commercially available and widely used anti-metastasis drugs.

Assay [3] shares this test system. The experiment in a line: Trypan Blue Exclusion Test of cancer cell viability. Conditions: for pIC50: defined in text as concentration of derivative causing greater than 90% of the cells to die, read-out: Anti-Cancer Activity (Trypan Blue Exclusion Assay) IC50. The assay is classed as cell-based. Here is the method: The ability of 1,2,3-triazole derivatives according to the disclosure to kill cancer cells can be measured, e.g., by Trypan Blue Exclusion Assay which measured cell death by starvation due to the presence of the derivative (see EXAMPLE 4). The results obtained using this assay with some representative 1,2,3-triazole derivatives according to the disclosure are shown below in Table 4.
The effect of Derivative 1 on cancer cell viability was determined using the Trypan Blue Exclusion Test (Stober (2001) (Curr. Protoc. Immunol., May; Appendix 3:Appendix 3B. doi: 10.1002/0471142735.ima03bs21). The viability of Non-Small Lung Cancer Cells (NSLCs) was assessed over a period of 15 days after the promotion of coagulation with or without 200 μM of 1,2,3-triazole derivative 1 and with or without 2% human plasma. Fresh 2% FBS medium corresponding to each condition was added every 3 days. Cell death was analyzed using Trypan blue staining. 2% FBS medium was used as control. Some representative results are shown in FIGS. 4A-4F.

[4] abbreviates: wound healing assay, dose-response curve, read-out: Anti-Cancer Activity (Inhibition of Cancer Cell Migration) IC50.

pIC50: −log10 of the molar value. Where two headings read alike, the source gives them in different places.

As to `O=c1[nH]nc(-c2cn(C3CCNCC3)nn2)o1` [Derivative 1], the pIC50 was 4.30 in assay [1] (listed as 1); 4.02 in assay [2] (96 h, NSLCs, 20% plasma, 20 mM calcium medium, wound closure over 4 days (FIG. 3), read-out: IC50 from dose response curve, cell migration); 3.92 in assay [2] (setting [4]); 3.60 in assay [3] (listed as 1). Besides, the “inhibition of fibrinolysis mediated by tPA (in words)” value in assay [1] (different concentrations, FIGS. 2B-2D) is “completely inhibit fibrinolysis”. Also, the “concentration at which cell migration was completely impaired” value in assay [2] (NSLCs, 20% plasma, 20 mM calcium medium (FIG. 3)) turned out to be 100 µM. Also, the “potency relative to CA in inhibition of migration of cancer cells” value in assay [2] (from IC50 values, vs Caproic Acid) was > 10 ×. For the same compound, the “potency relative to TNA in inhibition of migration of cancer cells” value in assay [2] (from IC50 values, vs Tranexamic Acid) is > 4 ×. In assay [3] (200 μM, plasma conditions, 7 days, vs plasma alone (FIG. 4C)), the “cell death by Trypan blue staining after 7 days (in words)” value is recorded as “even more significant”. For the same compound, in assay [3] (200 μM, plasma conditions, 15 days, vs FBS and plasma alone (FIG. 4F)), the “cell death by Trypan blue staining after 15 days (in words)” value was “increased cell death”.
For `NCCn1cc(C(=O)NN)nn1` [Derivative 15], the values for the pIC50 in assay [1], in assay [2] (setting [4]) and in assay [3] were 4.62, 3.98 and 3.09, respectively.
Taken in the same sequence, the figures for `NCCCn1cc(C/C(N)=N\O)nn1` [Derivative 11] were 3.49, 3.29 and 3.17.
In the same order, the values of `O=c1[nH]c(-c2cn(C3CCNCC3)nn2)no1` [compound 9, 3-(1-(piperidin-4-yl)-1H-1,2,3-triazol-4-yl)-1,2,4-oxadiazol-5(4H)-one] are 3.30, 3.09 and 2.96.
For `NCCCn1cc(-c2nnc(C(=O)O)o2)nn1` [Derivative 22], the pIC50 is 4.30 in assay [1], 3.92 in assay [2] (setting [4]) and 3.68 in assay [3].
Taken in the same sequence, the figures for `NC1CCC(n2cc(-c3noc(=O)[nH]3)nn2)CC1` (stereo not shown) [Derivative 19] were 3.43, 3.21 and 3.06.
Consider `NCCCn1cc(C(=O)NN)nn1` [Derivative 4], for which the pIC50 in assay [1] is 3.10; in assay [2] (setting [4]), 2.92; in assay [3], 2.68.
In the case of `NCCn1cc(-c2n[nH]c(=O)o2)nn1` [Derivative 18], the pIC50 in assay [1] was 3.60; in assay [2] (setting [4]), 3.46; in assay [3], 3.26.
Taken in the same sequence, the figures for `NCCCn1cc(-c2n[nH]c(=O)o2)nn1` [Derivative 2] were 3.70, 3.46 and 3.26.
In the case of `NCCn1ccnn1` [Derivative 32], the pIC50 in assay [1] was 4.46; in assay [2] (setting [4]), 4.00; in assay [3], 4.00.
